Assay results from patent US12215106B2, “Pharmaceutical compounds and therapeutic methods” (RUTGERS, THE STATE UNIVERSITY OF NEW JERSEY, priority 2018, dated 2025).
Structures can show the parent of a compound that is named as a salt. Where two headings read alike, the source gives them in different places.

Assay: Plasma pharmacokinetics and brain distribution after single IV, IP and oral administration
Format: in vivo
Description: The objective of this study was to investigate the plasma pharmacokinetics and brain distribution of Compound (14 in male C57BL/6 mice following a single intravenous, intraperitoneal and oral administration. A group of sixty-three male mice were divided into three groups (Group 1: 2 mg/kg/IV; Group 2: 10 mg/kg/IP and Group 3: 10 mg/kg/PO) with each group comprising of twenty-one mice.
Animals in Group 1 were administered intravenously with Compound 15 solution formulation in 5% NMP, 5% Solutol HS-15, 30% PEG-400 and 60% Captisol (20% w/v) at 2 mg/kg dose. […] Considering mortality intravenous dose was reduced to 2 mg/kg.
Animals in Group 2 and 3 were administered with Compound 15 solution formulation in 5% NMP, 5% Solutol HS-15, 30% PEG-400 and 60% Captisol (20% w/v) at a dose of 10 mg/kg by intraperitoneal and oral route respectively.
(§1) Blood samples (approximately 60 μL) were collected under light isoflurane anesthesia from retro orbital plexus from a set of three mice at 0.08, 0.35, 1, 3, 6, 12 and 24 hr. Plasma samples were separated by centrifugation of whole blood and stored below −70±10° C. until bioanalysis. Immediately after collection of blood, brain samples were collected from set of three mice at each time point. Brain samples were homogenized using ice-cold phosphate buffer saline (pH-7.4) in a ratio of 2 (buffer):1(brain); and homogenates were stored below −70±10° C. until analysis. Total homogenate volume was three times the brain weight. All samples were processed for analysis by protein precipitation using acetonitrile and analyzed with fit-for-purpose LC/MS/MS method (LLOQ2.00 ng/mL for plasma and 3.00 ng/g for brain). Pharmacokinetic parameters were calculated using the non-compartmental analysis tool of Phoenix WinNonlin® (Version 7.0). Pharmacokinetic parameters of Compound 15 are summarized below.
The objective of this study was to investigate the plasma pharmacokinetics and brain distribution of Compound 16 in male C57BL/6 mice following a single intravenous, intraperitoneal and oral administration. A group of sixty-three male mice were divided into three groups (Group 1: 10 mg/kg/IV; Group 2: 10 mg/kg/IP and Group 3: 10 mg/kg/PO) with each group comprising of twenty-one mice.
Animals in Group 1 were administered intravenously with Compound 16 solution formulation in 5% NMP, 5% Solutol HS-15 and 90% normal saline at 10 mg/kg dose.
Animals in Group 2 and 3 were administered with Compound 16 solution formulation in 5% NMP, 5% Solutol HS-15 and 90% normal saline at a dose of 10 mg/kg by intraperitoneal and oral route respectively.
as §1, with “(LLOQ—1.00” for “(LLOQ2.00”, “16” for “15”
The objective of this study was to investigate the plasma pharmacokinetics and brain distribution of Compound 17 in male C57BL/6 mice following a single intravenous, intraperitoneal and oral administration. A group of sixty-three male mice were divided into three groups (Group 1: 2 mg/kg/IV; Group 2: 10 mg/kg/IP and Group 3: 10 mg/kg/PO) with each group comprising of twenty-one mice. […]

[1] = male, C57BL/6, mouse, in vivo, iv, 2 mg/kg, Brain concentration, individual animal
[2] = male, C57BL/6, mouse, in vivo, iv, 2 mg/kg, Mean brain conc.
[3] = male, C57BL/6, mouse, in vivo, iv, 2 mg/kg, Mean plasma conc.
[4] = male, C57BL/6, mouse, in vivo, iv, 2 mg/kg, Plasma concentration, individual animal
[5] = male, C57BL/6, mouse, in vivo, po, 10 mg/kg
[6] = male, C57BL/6, mouse, in vivo, po, 10 mg/kg, 24 h
[7] = male, C57BL/6, mouse, in vivo, po, 10 mg/kg, Brain concentration, individual animal
[8] = male, C57BL/6, mouse, in vivo, po, 10 mg/kg, Mean brain conc.
[9] = male, C57BL/6, mouse, in vivo, po, 10 mg/kg, Mean plasma conc.
[10] = male, C57BL/6, mouse, in vivo, po, 10 mg/kg, Plasma concentration, individual animal

[2H]C([2H])([2H])Oc1ccc(Nc2nc(-c3c(C)nc4ccccn34)cs2)cc1 [Compound 15, N-(4-(methoxy-d3)phenyl)-4-(2-methylimidazo[1,2-c]pyridin-3-yl)thiazol-2-amine hydrochloride] showed a concentration at 1 h [1] of 67.2 ng/g, a concentration at 6 h [1] of 0 ng/g and a concentration at 12 h [1] of 0 ng/g. It also gave a concentration at 24 h [1] of 0 ng/g, a concentration at 0.08 h [2] of 366 ng/g and a concentration at 0.35 h [2] of 231 ng/g. For the same compound, the concentration at 1 h [2] was 80 ng/g, the concentration at 3 h [2] was 27.2 ng/g and the concentration at 6 h [2] was 0 ng/g. The concentration at 12 h [2] was 0 ng/g, the concentration at 24 h [2] was 0 ng/g and the concentration at 0.08 h [3] was 313 ng/mL. For the same compound, the concentration at 0.35 h [3] was 149 ng/mL, the concentration at 1 h [3] was 61.9 ng/mL and the concentration at 3 h [3] was 16.6 ng/mL. For the same compound, the concentration at 6 h [3] was 0 ng/mL, the concentration at 12 h [3] was 0 ng/mL and the concentration at 24 h [3] was 0 ng/mL. The concentration at 0.08 h [4] was 298 ng/mL, the concentration at 0.35 h [4] was 139 ng/mL and the concentration at 6 h [4] was 0 ng/mL. The concentration at 12 h [4] was 0 ng/mL, the concentration at 24 h [4] was 0 ng/mL and the “Brain concentrations quantifiable up to” value [5] was “up to 12 hr”. For the same compound, the “Plasma concentrations quantifiable up to” value [5] was “up to 12 hr”, the “Brain concentration, individual animal” value [6] was 0.00 ng/g and the “Plasma concentration, individual animal” value [6] was 0.00 ng/mL. For the same compound, the concentration at 0.08 h [7] was 8.31 ng/g, the concentration at 1 h [7] was 190 ng/g and the concentration at 24 h [7] was 0 ng/g. For the same compound, the concentration at 0.08 h [8] was 7.99 ng/g, the concentration at 0.35 h [8] was 108 ng/g and the concentration at 1 h [8] was 253 ng/g. It also gave a concentration at 3 h [8] of 66 ng/g, a concentration at 6 h [8] of 6.63 ng/g and a concentration at 12 h [8] of 3.63 ng/g. The concentration at 24 h [8] was 0 ng/g, the concentration at 0.08 h [9] was 78.2 ng/mL and the concentration at 0.35 h [9] was 261 ng/mL. It also gave a concentration at 1 h [9] of 245 ng/mL, a concentration at 3 h [9] of 93.7 ng/mL and a concentration at 6 h [9] of 11.1 ng/mL. The concentration at 12 h [9] was 5.82 ng/mL, the concentration at 24 h [9] was 0 ng/mL and the concentration at 0.35 h [10] was 251 ng/mL. The concentration at 12 h [10] was 8.42 ng/mL, the concentration at 24 h [10] was 0 ng/mL and the Kp at 0.08 h (male, C57BL/6, mouse, in vivo, IV 2 mg/kg, 0.08 hr, read-out: Brain-to-plasma ratio) was 1.17. The Kp at 0.35 h (male, C57BL/6, mouse, in vivo, IV 2 mg/kg, 0.35 hr, read-out: Brain-to-plasma ratio) was 1.55, the Kp at 1 h (male, C57BL/6, mouse, in vivo, IV 2 mg/kg, 1 hr, read-out: Brain-to-plasma ratio) was 1.29 and the Kp at 3 h (male, C57BL/6, mouse, in vivo, IV 2 mg/kg, 3 hr, read-out: Brain-to-plasma ratio) was 1.64. It also gave a bioavailability (male, C57BL/6, mouse, plasma, po, 10 mg/kg, PO 10 mg/kg, AUClast considered, read-out: Oral bioavailability, % F) of 64%, a bioavailability (male, C57BL/6, mouse, plasma, po, 10 mg/kg, summary data, read-out: Oral bioavailability) of 64% and a Tmax (male, C57BL/6, mouse, plasma, IP 10 mg/kg) of 21 min. For the same compound, the clearance (male, C57BL/6, mouse, plasma, IV 2 mg/kg, read-out: CL, plasma clearance) was 130 mL/min/kg, the half-life (male, C57BL/6, mouse, plasma, IV 2 mg/kg, read-out: T1/2, terminal elimination half-life (converted)) was 52.8 min and the Tmax (male, C57BL/6, mouse, plasma, PO 10 mg/kg) was 21 min. For the same compound, the “mortality immediately after dose administration” value (mouse, in vivo, iv, 10 mg/kg) was “mortality was observed in four animals”.
